Tests used:
CYP1A2 = CYP1A2 (Homo sapiens (Human), UniProt P05177); assay: Cytochrome P450 activity inhibition, CYP1A2; assay type: in vitro ADME; conditions: 10 μM, human liver microsomes
Excerpt: (§1) 1) Cytochrome P450 (CYP450) Activity Inhibition Evaluation

CYP2C9 = CYP2C9 (Homo sapiens (Human), UniProt P11712); assay: Cytochrome P450 activity inhibition, CYP2C9; assay type: in vitro ADME; conditions: 10 μM, human liver microsomes
Excerpt: as §1

CYP2C19 = CYP2C19 (Homo sapiens (Human), UniProt P33261); assay: Cytochrome P450 activity inhibition, CYP2C19; assay type: in vitro ADME; conditions: 10 μM, human liver microsomes
Excerpt: as §1

CYP2D6 = CYP2D6 (Homo sapiens (Human), UniProt P10635); assay: Cytochrome P450 activity inhibition, CYP2D6; assay type: in vitro ADME; conditions: 10 μM, human liver microsomes
Excerpt: as §1

CYP3A4 = CYP3A4 (Homo sapiens (Human), UniProt P08684); assay: Cytochrome P450 activity inhibition, CYP3A4; assay type: in vitro ADME; conditions: 10 μM, human liver microsomes
Method: Thereafter, in order to complete the reaction, an acetonitrile solution containing an internal standard material (Terfenadine) was added thereto, centrifugation (14,000 rpm, 4° C.) was performed for 5 minutes, and a supernatant was injected into a LC-MS/MS system to analyze the metabolites of the substrate drug, thereby evaluating drug metabolism enzyme inhibition by the arylethene derivative of the present invention.

ERRγ = assay type: cell-based; conditions: for Functional Assay, Cpds/Ref 5182: activity relative to reference compound GSK5182; for Functional Assay at 10 μM (% of control), Cpds: AD293, 24 hours
Method: AD293 was cultured in a 24-well plate for 24 hours, using a DMEM High glucose culture medium (Hyclone, USA) to which 0.5% FBS was added at a concentration of 9×10^4/well. The culture medium was replaced with a DMEM High glucose culture medium to which 10% FBS was added, treatment was performed with a mixture of a TransIT-LT1 transfection reagent (Minis, USA) and pCMX-Gal4-ERRγ, pFR-luciferase reporter plasmid, pCMV-β-gal, and culturing was performed for 24 hours. Thereafter, a luciferase activity assay and a β-gal assay were performed, respectively, with a lysate obtained after treatment with the arylethene derivative of the present invention for 24 hours. All results were derived from three or more independent repetitive experiments.

[1] = assay type: in vitro ADME, human; conditions: 1 μM, 30 minutes, 37° C.
Method: 2) Microsomal Stability Evaluation
Four liver microsomes (Human, Dog, Rat, Mouse 0.5 mg/ml) with a 0.1 M phosphate buffer solution (pH 7.4), and the arylethene derivative of the present invention were added to a concentration of 1 μM, culturing was performed at 37° C. for 5 minutes in advance, a NADPH regeneration system solution was added thereto, and culturing was performed at 37° C. for 30 minutes. Thereafter, in order to complete the reaction, an acetonitrile solution containing an internal standard material (chlorpropamide) was added thereto, centrifugation (14,000 rpm, 4° C.) was performed for 5 minutes, and a supernatant was injected into a LC-MS/MS system to analyze the substrate drug, thereby evaluating metabolism stability to the arylethene derivative of the present invention.

[2] = assay type: in vivo; conditions: rat, IV 1 mg/kg
Method: An oral administration group fasts the day before.
Blood of each animal is collected at 0 hour.
Into a tail vein of an intravenous administration group (IV), a drug is injected at a dose of 1 mg/kg (syringe).
To an oral administration group (PO), a drug is orally administered at a dose of 10 mg/kg (oral zondec)
After administration, blood of the intravenous administration group was collected through a jugular vein 8 times at 0.08, 0.25, 0.5, 1, 2, 4, 6, and 8 hours. One collected blood amount is 400 to 500 ul.
After administration, blood of the oral administration group was collected through a jugular vein 6 times at 0.25, 0.5, 1, 4, 6 and 8 hours. One collected blood amount is 400 to 500 ul.
Supernatant plasma is collected by a centrifuge.
The supernatant plasma was injected into a LC-MS/MS system and the drug is analyzed.

Chain of CYP3A4 (P08684 whole entry): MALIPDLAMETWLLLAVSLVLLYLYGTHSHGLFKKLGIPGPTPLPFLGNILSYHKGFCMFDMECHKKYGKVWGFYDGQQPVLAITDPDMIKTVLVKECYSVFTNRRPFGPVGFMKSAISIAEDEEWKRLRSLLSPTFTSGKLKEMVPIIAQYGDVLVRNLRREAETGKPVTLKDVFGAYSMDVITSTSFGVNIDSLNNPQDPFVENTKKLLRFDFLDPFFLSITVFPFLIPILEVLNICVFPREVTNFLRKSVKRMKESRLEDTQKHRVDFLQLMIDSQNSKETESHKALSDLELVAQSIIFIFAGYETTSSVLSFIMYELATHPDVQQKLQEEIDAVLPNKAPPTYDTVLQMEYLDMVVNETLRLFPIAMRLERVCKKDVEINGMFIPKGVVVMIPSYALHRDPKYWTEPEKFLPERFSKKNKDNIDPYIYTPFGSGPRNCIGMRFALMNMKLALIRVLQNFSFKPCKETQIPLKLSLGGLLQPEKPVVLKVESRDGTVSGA
Chain of CYP1A2 (P05177 whole entry): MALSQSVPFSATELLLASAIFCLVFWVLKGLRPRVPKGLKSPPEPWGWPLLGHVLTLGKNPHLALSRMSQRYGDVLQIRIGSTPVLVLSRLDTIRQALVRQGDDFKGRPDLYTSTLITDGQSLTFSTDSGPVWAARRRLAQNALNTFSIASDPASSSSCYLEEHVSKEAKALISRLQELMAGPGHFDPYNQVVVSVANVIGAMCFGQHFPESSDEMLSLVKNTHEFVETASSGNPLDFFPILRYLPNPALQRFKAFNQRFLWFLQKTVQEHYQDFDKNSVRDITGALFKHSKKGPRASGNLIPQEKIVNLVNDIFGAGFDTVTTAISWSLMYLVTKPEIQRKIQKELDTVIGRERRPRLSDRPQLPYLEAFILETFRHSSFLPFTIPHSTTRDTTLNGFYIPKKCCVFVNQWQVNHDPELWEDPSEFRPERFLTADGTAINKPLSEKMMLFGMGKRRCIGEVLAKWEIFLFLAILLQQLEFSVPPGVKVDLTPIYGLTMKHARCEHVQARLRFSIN
Chain of CYP2C9 (P11712 whole entry): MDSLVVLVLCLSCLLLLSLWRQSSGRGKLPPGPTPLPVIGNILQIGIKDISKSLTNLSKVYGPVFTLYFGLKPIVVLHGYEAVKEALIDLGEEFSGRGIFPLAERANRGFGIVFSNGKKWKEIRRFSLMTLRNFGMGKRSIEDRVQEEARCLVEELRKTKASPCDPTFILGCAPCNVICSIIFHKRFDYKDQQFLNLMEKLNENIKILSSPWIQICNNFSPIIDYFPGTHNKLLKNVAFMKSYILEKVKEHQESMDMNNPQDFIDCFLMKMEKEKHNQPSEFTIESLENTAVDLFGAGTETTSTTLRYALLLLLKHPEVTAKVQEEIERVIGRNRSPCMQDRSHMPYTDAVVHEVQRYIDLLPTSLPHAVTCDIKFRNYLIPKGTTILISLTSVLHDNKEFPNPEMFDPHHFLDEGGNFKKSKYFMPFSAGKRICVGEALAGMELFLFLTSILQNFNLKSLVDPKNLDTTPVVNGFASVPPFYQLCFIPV
Chain of CYP2C19 (P33261 whole entry): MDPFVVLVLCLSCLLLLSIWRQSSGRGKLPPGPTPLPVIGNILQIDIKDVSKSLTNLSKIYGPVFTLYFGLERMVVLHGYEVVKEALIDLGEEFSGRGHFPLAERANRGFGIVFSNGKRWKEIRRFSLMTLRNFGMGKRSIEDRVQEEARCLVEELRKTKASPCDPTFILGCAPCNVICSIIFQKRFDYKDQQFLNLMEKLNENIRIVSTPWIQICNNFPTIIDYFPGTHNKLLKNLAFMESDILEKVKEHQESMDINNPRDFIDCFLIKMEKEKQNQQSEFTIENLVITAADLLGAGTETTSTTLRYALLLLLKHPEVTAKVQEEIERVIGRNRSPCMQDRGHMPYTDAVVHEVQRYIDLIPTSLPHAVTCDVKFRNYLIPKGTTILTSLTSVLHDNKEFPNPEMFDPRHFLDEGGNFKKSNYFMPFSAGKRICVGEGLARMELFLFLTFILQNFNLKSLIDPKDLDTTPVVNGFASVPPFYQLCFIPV
Chain of CYP2D6 (P10635 whole entry): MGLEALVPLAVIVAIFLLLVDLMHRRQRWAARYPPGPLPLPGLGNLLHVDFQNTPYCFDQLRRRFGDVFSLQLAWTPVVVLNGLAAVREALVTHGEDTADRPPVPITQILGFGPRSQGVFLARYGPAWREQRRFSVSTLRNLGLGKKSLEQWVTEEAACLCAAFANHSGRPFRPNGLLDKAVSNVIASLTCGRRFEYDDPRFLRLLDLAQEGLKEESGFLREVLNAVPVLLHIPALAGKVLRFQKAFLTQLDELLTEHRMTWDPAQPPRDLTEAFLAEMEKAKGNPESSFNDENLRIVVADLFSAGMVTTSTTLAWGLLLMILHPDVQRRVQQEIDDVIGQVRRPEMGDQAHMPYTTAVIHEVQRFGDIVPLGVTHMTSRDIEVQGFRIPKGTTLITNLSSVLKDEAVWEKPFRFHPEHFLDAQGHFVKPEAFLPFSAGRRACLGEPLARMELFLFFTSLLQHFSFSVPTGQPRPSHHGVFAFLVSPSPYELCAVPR

SMILES	CYP inhibition (% of control) 1A2 (CYP1A2)	CYP inhibition (% of control) 2C9 (CYP2C9)	CYP inhibition (% of control) 2C19 (CYP2C19)	CYP inhibition (% of control) 2D6 (CYP2D6)	CYP inhibition (% of control) 3A4 (CYP3A4)	Functional Assay, Cpds/Ref 5182 (ERRγ)	other results
OCCC/C(=C(\c1ccc(O)cc1)c1ccc(OCCN2CCOCC2)cc1)c1ccccc1 [Compound 6c]	91.9 % of control	77.9 % of control	81.6 % of control	96.4 % of control	81.3 % of control	–	–
OCCC/C(=C(\c1ccc(O)cc1)c1ccc(OCCN2CCCC2)cc1)c1ccccc1 [Compound 6e]	79.6 % of control	51.6 % of control	64.1 % of control	80.6 % of control	68.1 % of control	–	–
CN1CCCC1CCOc1ccc(/C(=C(/CCCO)c2ccccc2)c2ccc(O)cc2)cc1 (centres unmarked) [Compound 6g]	97.8 % of control	75.4 % of control	81.8 % of control	81.7 % of control	83.7 % of control	1.60	–
CN1CCC[C@@H]1COc1ccc(/C(=C(/CCCO)c2ccccc2)c2ccc(O)cc2)cc1 [Compound 6i]	98.1 % of control	86.7 % of control	82.6 % of control	93.6 % of control	79.4 % of control	–	–
CN1CCC[C@H]1CCOc1ccc(/C(=C(/CCCO)c2ccccc2)c2ccc(O)cc2)cc1 [Compound 6j]	98.7 % of control	85.6 % of control	89.1 % of control	85.2 % of control	74.6 % of control	0.77	–
CN1CCC[C@@H]1CCOc1ccc(/C(=C(/CCCO)c2ccccc2)c2ccc(O)cc2)cc1 [Compound 6k]	–	–	–	–	–	0.79	–
CN1CCCC1CCOc1ccc(/C(=C(/CCCO)c2ccccc2)c2ccc(Br)cc2)cc1 (centres unmarked) [Compound 13d]	>100 % of control	97 % of control	89.4 % of control	>100 % of control	90.2 % of control	–	–
CN1CCN(c2ccc(/C(=C(/CCCO)c3ccccc3)c3ccc([N+](=O)[O-])cc3)cc2)CC1 [Compound 18c]	–	–	80 % of control	–	–	0.42	–
CN1CCN(c2ccc(/C(=C(/CCCO)c3ccccc3)c3ccc(O)cc3)cc2)CC1 [Compound 18d]	88 % of control	–	–	–	64 % of control	0.97	–
Cc1ccc(/C(=C(\CCCO)c2ccccc2)c2ccc(N3CCN(C)CC3)cc2)cc1 [Compound 18f]	>100 % of control	–	–	–	–	0.82	–
CC(C)N1CCN(c2ccc(/C(=C(/CCCO)c3ccccc3)c3ccc([N+](=O)[O-])cc3)cc2)CC1 [Compound 18g]	–	–	–	–	–	0.84	–
CC(C)N1CCN(c2ccc(/C(=C(/CCCO)c3ccccc3)c3ccc(Br)cc3)cc2)CC1 [Compound 18h]	–	–	–	–	–	–	MS (Microsomal Stability) (%) human [1]: >100%
CCN1CCN(c2ccc(/C(=C(/CCCO)c3ccccc3)c3ccc(O)cc3)cc2)CC1 [Compound 18i]	–	–	–	–	–	0.97	–
CC(C)(C)OC(=O)N1CCN(c2ccc(/C(=C(/CCCO)c3ccccc3)c3ccc(Br)cc3)cc2)CC1 [Compound 18n]	–	–	–	–	–	0.82	–
CC(C)(C)OC(=O)N1CC(c2ccc(/C(=C(/CCCO)c3ccccc3)c3ccc(O)cc3)cc2)C1 [Compound 18t, tert-butyl (E)-3-(4-(5-hydroxy-1-(4-hydroxyphenyl)-2-phenylpent-1-en-1-yl)phenyl)azetidine-1-carboxylate]	100 % of control	83 % of control	93 % of control	98 % of control	106 % of control	–	–
OCCC/C(=C(\c1ccc(Br)cc1)c1ccc(N2CCNCC2)cc1)c1ccccc1 [Compound 20a, (E)-5-(4-bromophenyl)-4-phenyl-5-(4-(piperazin-1-yl)phenyl)pent-4-en-1-ol]	85 % of control	76 % of control	61.9 % of control	70.7 % of control	55 % of control	–	–
OCCC/C(=C(\c1ccc(O)cc1)c1ccc(N2CCNCC2)cc1)c1ccccc1 [Compound 20c]	–	–	–	–	–	0.93	–
CN1CCC(c2ccc(/C(=C(/CCCO)c3ccccc3)c3cccc(O)c3)cc2)CC1 [Compound 22ac]	>100 % of control	>100 % of control	>100 % of control	–	85 % of control	–	–

SMILES	CYP inhibition (% of control) 1A2 (CYP1A2)	CYP inhibition (% of control) 2C9 (CYP2C9)	CYP inhibition (% of control) 2C19 (CYP2C19)	CYP inhibition (% of control) 2D6 (CYP2D6)	CYP inhibition (% of control) 3A4 (CYP3A4)	Functional Assay, Cpds/Ref 5182 (ERRγ)	other results
CCN1CCC(c2ccc(C(=C(CCCO)c3ccccc3)c3cccc(O)c3)cc2)CC1 [Compound 22ae]	–	>100 % of control	>100 % of control	–	–	–	–
OCCC/C(=C(\c1ccc(O)cc1)c1ccc(C2CN(C3CC3)C2)cc1)c1ccccc1 [Compound 22d]	>100 % of control	>100 % of control	>100 % of control	–	–	0.62	–
Cc1ccc(/C(=C(\CCCO)c2ccccc2)c2ccc(C3CN(C(C)C)C3)cc2)cc1 [Compound 22e]	–	–	–	–	–	0.61	–
CC(C)N1CCC(c2ccc(/C(=C(/CCCO)c3ccccc3)c3cccc(O)c3)cc2)CC1 [Compound 22h]	>100 % of control	–	>100 % of control	–	–	–	–
OCCC/C(=C(\c1ccc(O)cc1)c1ccc(C2CCN(C3CC3)CC2)cc1)c1ccccc1 [Compound 22i]	–	–	–	–	–	–	MS (Microsomal Stability) (%) human [1]: 36.0%
OCCC/C(=C(\c1ccc(O)cc1)c1ccc(C2=CCN(C3CC3)CC2)cc1)c1ccccc1 [Compound 22j]	–	88 % of control	–	–	85 % of control	–	–
OCCC/C(=C(/c1ccc(C2=CCN(C3CC3)CC2)cc1)c1cccc(O)c1)c1ccccc1 [Compound 22l]	–	–	97 % of control	99 % of control	–	–	–
OCCC/C(=C(\c1ccc(O)cc1)c1ccc(N2CCN(C3CCC3)CC2)cc1)c1ccccc1 [Compound 22q]	–	–	–	–	81 % of control	–	–
CN1CCN(c2ccc(/C(=C(/CCCO)c3ccccc3)c3ccc(N)cc3)cc2)CC1 [Compound 26a, (Z)-5-(4-aminophenyl)-5-(4-(4-methylpiperazin-1-yl)phenyl)-4-phenylpent-4-en-1-ol]	>100 % of control	53.2 % of control	89 % of control	85.5 % of control	75.4 % of control	0.84	–
CC(C)N1CCC(c2ccc(/C(=C(/CCCO)c3ccccc3)c3ccc(N)cc3)cc2)CC1 [Compound 26c]	–	–	–	–	–	4.80	–
CC(C)N1CCN(c2ccc(/C(=C(/CCCO)c3ccccc3)c3ccc(OS(C)(=O)=O)cc3)cc2)CC1 [Compound 28a, (E)-4-(5-hydroxy-1-(4-(4-isopropylpiperazin-1-yl)phenyl)-2-phenylpent-1-en-1-yl)phenyl methanesulfonate]	–	–	–	–	–	1.20	–
CN1CCN(c2ccc(/C(=C(/CCCOC(=O)C(C)(C)C)c3ccccc3)c3ccc(O)cc3)cc2)CC1 [Compound 28f]	–	–	–	–	–	0.98	Functional Assay at 10 μM (% of control), Cpds (ERRγ): 4 % of control
CN1CCN(c2ccc(/C(=C(/CCCOC(=O)C(C)(C)C)c3ccccc3)c3ccc(OC(=O)C(C)(C)C)cc3)cc2)CC1 [Compound 28g]	–	–	–	–	–	–	Functional Assay at 10 μM (% of control), Cpds (ERRγ): 5.1 % of control
OCCC/C(=C(\c1ccc(O)cc1)c1ccc(OCCN2CCC[C@@H]2CO)cc1)c1ccccc1 [Compound 38c]	–	–	–	–	–	0.99	–
OCCC/C(=C(\c1ccc(O)cc1)c1ccc(OCCN2CCC3(CCNC3)C2)cc1)c1ccccc1 (centres unmarked) [Compound 39, (Z)-4-(1-(4-(2-(2,7-diazaspiro[4.4]nonan-2-yl)ethoxy)phenyl)-5-hydroxy-2-phenylpent-1-en-1-yl)phenol]	82.5 % of control	74.4 % of control	73.9 % of control	67.8 % of control	59 % of control	–	–
C[Si](C)(CN1CCCC1)c1ccc(/C(=C(/CCCO)c2ccccc2)c2ccc(O)cc2)cc1 [Compound 42c]	–	–	–	–	–	0.89	Functional Assay at 10 μM (% of control), Cpds (ERRγ): 2.6 % of control
O=C(CN1CCCCC1)Nc1ccc(/C(=C(/CCCO)c2ccccc2)c2ccc(O)cc2)cc1 [Compound 44, (E)-N-(4-(5-hydroxy-1-(4-hydroxyphenyl)-2-phenylpent-1-en-1-yl)phenyl)-2-(piperidin-1-yl)acetamide]	–	–	–	–	–	–	AUCINF [2]: 0.34 μMh; AUCall [2]: 0.28 μMh; Cl(observed)/F [2]: 139 mL/min/kg; Vss [2]: 52.8 L/kg; t1/2 [2]: 4.4 h

Reference: patent US11285226B2, “Aryl ethene derivative and pharmaceutical composition containing same as active ingredient” (priority 2016, dated 2022)
